From patent US8227510B2, “Combine use of pterostilbene and quercetin for the production of cancer treatment medicaments” (Universitat de Valencia, priority 2004, dated 2012)
Marks after values point to notes of the source that are not given here.

Legend:
Format in all cases: cell-based, mice
B16M-F10 cells / HSE [1] = test: Adhesion in vitro of B16M-F10 cells to hepatic sinusoidal endothelium; conditions: for inhibition of adhesion of tumor cells to the endothelium: brief exposure (60 minutes), TNF and IFN present; for Tumor cells Adhesion (%): t-RESV 12 μM, t-PTER 40 μM, QUER 20 μM, 60 minutes exposure, cytokine-treated HSE, no polyphenol = 100%
Excerpt: (§1) C57BL/6J mice were used (male, 10 to 12 weeks old) from IFFA Credo (L'Arbreole, France). The hepatic sinusoidal endothelium (HSE) was separated and identified as described previously (20). The sinusoidal cells were separated in a gradient of 17.5% metrizamide (w/v). The HSE cultures were established and maintained in pyrogen-free DMEM supplemented as described previously for the B16M-F10 cells. Differential adhesion of the endothelial cells to the collagen matrix and washing permitted complete removal of other types of sinusoidal cells (Kupffer's cells, astrocytes, lymphocytes) from the culture flasks.
(§2) The B16M-F10 cells were labeled with 2′,7′-bis-(2-carboxyethyl)-5-(and -6)-carboxyfluorescein acetoxymethyl ester (BCECF-AM; Moleculer Probes, Eugene, Oreg., USA) (10^6 cells were incubated for 20 minutes at 37° C. in 1 ml of DMEM buffered with HEPES that contained 50 μg of BCECF-AM and 5 μl of DMSO). After washing, the cells that contained BCECF-AM were resuspended in DMEM buffered with HEPES without phenol red at a concentration of 2.5×10^6 cells/ml and were added (0.2 ml/well) to the endothelial cell culture (seeded 24 hours previously), as well as to wells of plastic and controls previously treated with collagen. The plates were then incubated at 37° C. and, 20 minutes later, the wells were washed three times with fresh medium, and then their fluorescence was read using a Fluoroskan Ascent FL (Labsystems, Manchester, UK). The number of adhering tumor cells was quantified with arbitrary fluorescence units based on the percentage relative to the initial number of B16M-F10 cells added to the HSE culture (20). The damage caused to the B16M-F10 cells during their adhesion in vitro to the HSE was evaluated as described previously (21) using tumor cells labeled with calcein-AM (Molecular Probes, Eugene, Oreg., USA). The integrity of the B16M-F10 cells cultivated on their own was evaluated by exclusion of trypan blue and measuring the lactate dehydrogenase released to the extracellular medium (22). The other reagents used in the tumoral cytotoxicity experiments were from Sigma.
Recombinant murine TNF- (2×10^7 U/mg of protein) and recombinant murine interferon-(IFN-; 10^5 U/mg of protein) were obtained from Sigma. The concentrated solutions (5×10^5 U TNF-/ml and 25×10^4 U IFN-/ml) were diluted in sterile saline (0.9% NaCl), adjusted to pH 7.0, and stored at 4° C.
In addition to the effect of PTER+QUER on tumor growth, we investigated the antimetastatic potential. The interaction of B16M-F10 and HSE cells was studied in vitro first. On the basis of the results obtained previously, we chose brief periods of exposure (60 minutes) of the metastatic cells to the polyphenols (at the concentrations measured in the plasma after their i.v. administration). Since the interaction of the metastatic cells with the endothelial cells and Kupffer's cells activates the local release of proinflammatory cytokines [promoters of adhesion of cancer cells to the endothelium and of invasion (14, 31)], we investigated the effect of the polyphenols on the adhesion of B16M-F10 cells to the HSE in the presence of TNF- and IFN-—this combination of cytokines induces maximum activation of the HSE (see ref. 20 and the references therein) (Table 3). […] A similar effect (˜60% inhibition of adhesion) was found in the presence of t-PTER (Table 3). […]

B16M-F10 cells / HSE [2] = test: HSE-induced cytotoxicity on adhering B16M-F10 cells in vitro; conditions: for Tumor cells Cytotoxicity (% of adhering): t-RESV 12 μM, t-PTER 40 μM, QUER 20 μM, after 6 hours of incubation, none 15 ± 2
Excerpt: as §1, §2
Recombinant murine TNF- (2×10^7 U/mg of protein) and recombinant murine interferon-(IFN-; 10^5 U/mg of protein) were obtained from Sigma. […]
HSE cells, previously cultured for 24 hours [±polyphenol(s), added 12 hours from seeding and removed by washing 60 minutes later], were cocultured with B16M-F10 cells previously cultured for 72 hours [±polyphenol(s), as in FIG. 2]. […] In the tests of endothelium-induced cytotoxicity on the B16M-F10 cells, the tumor damage (expressed as the percentage of tumor cells that lost viability during the incubation period of 4-6 hours, see the methodology) was determined after 6 hours of incubation. […]

B16M-F10 cells / HSE [3] = test: In-vitro invasion of the monolayer of hepatic endothelial cells by B16M-F10 cells; conditions: t-RESV 12 μM, t-PTER 40 μM, QUER 20 μM; 5 days culture; none 157 ± 17
Description: The test of invasion of the endothelial cell monolayer by B16M-F10 cells was carried out in accordance with the method of Ohigashi et al. (23) with some modifications. The HSE cells were seeded on culture plates with grids coated with gelatin (1%). When the cells attained confluence, the culture medium was replaced with freshly prepared medium. After 2 hours of incubation, the cultures were washed with DMEM and then the B16M-F10 cells were seeded on the HSE cells, maintaining the culture for 5 days. The invasion capacity of the B16M-F10 cells was measured by counting the number of colonies per 1 cm^2 formed under the HSE monolayer using a phase-contrast microscope.
HSE cells, previously cultured for 24 hours [±polyphenol(s), added 12 hours from seeding and removed by washing 60 minutes later], were cocultured with B16M-F10 cells previously cultured for 72 hours [±polyphenol(s), as in FIG. 2]. Cytokines [100 units of TNF-/ml and 50 units of IFN-/ml, see (20)] or the vehicle (physiological saline) were added to the culture media 12 hours before starting the cocultures. The proportion of adhesion of the tumor cells to the HSE was ˜1:1 in the cultures treated with cytokines in the absence of polyphenols (this value was assigned an adhesion level of 100%). In the experiments of adhesion between B16M-F10 cells and endothelial cells, 20 minutes after adding the B16M-F10 to the HSE, the plates were washed in the manner described in the methodology. In the tests of endothelium-induced cytotoxicity on the B16M-F10 cells, the tumor damage (expressed as the percentage of tumor cells that lost viability during the incubation period of 4-6 hours, see the methodology) was determined after 6 hours of incubation. During the 6-hour incubation period, the percentage viability of the HSE cells was 99-100% in all cases. All of the tests were carried out in the absence or in the presence of t-RESV (12 μM), t-PTER (40 μM), and/or QUER (20 μM). […]

For `COc1cc(/C=C/c2ccc(O)cc2)cc(OC)c1` [PTER, pterostilbene], the “inhibition of adhesion of tumor cells to the endothelium” value (B16M-F10 cells / HSE [1]) was about 60%, the “Tumor cells Adhesion (%)” value (B16M-F10 cells / HSE [1]) was 40 ± 6 % and the “Tumor cells Cytotoxicity (% of adhering)” value (B16M-F10 cells / HSE [2]) was 19 ± 3* % of adhering. The “Number of colonies penetrated per cm^2” value (B16M-F10 cells / HSE [3]) was 89 ± 9** per cm^2.

With `O=c1c(O)c(-c2ccc(O)c(O)c2)oc2cc(O)cc(O)c12` [QUER, quercetin] the “inhibition of adhesion of tumor cells to the endothelium” value (B16M-F10 cells / HSE [1]) was “without affecting the level of adhesion”, the “Tumor cells Adhesion (%)” value (B16M-F10 cells / HSE [1]) was 98 ± 11% and the “increase of the death of B16M-F10 cells induced by the HSE” value (B16M-F10 cells / HSE [2]; brief exposure (60 minutes)) was about 48%. For the same compound, the “Tumor cells Cytotoxicity (% of adhering)” value (B16M-F10 cells / HSE [2]) was 52 ± 6** % of adhering and the “Number of colonies penetrated per cm^2” value (B16M-F10 cells / HSE [3]) was 106 ± 15** per cm^2.

With `Oc1ccc(C=Cc2cc(O)cc(O)c2)cc1` [RESV, resveratrol, reference compound] the “Tumor cells Adhesion (%)” value (B16M-F10 cells / HSE [1]) was 53 ± 7 %, the “Tumor cells Cytotoxicity (% of adhering)” value (B16M-F10 cells / HSE [2]) was 12 ± 3 % of adhering and the “Number of colonies penetrated per cm^2” value (B16M-F10 cells / HSE [3]) was 104 ± 12** per cm^2.
